According to patent publication US20260317324A1, “BIFUNCTIONAL COMPOUNDS FOR DEGRADING BRAF VIA UBIQUITIN PROTEOSOME PATHWAY” (Nurix Therapeutics, Inc., priority 2023, published 2026):

Legend:
Format in all cases: cell-based
BRAF G466V = molecular target: T1, BRAF G466V (Homo sapiens, UniProt P15056, G466V); assay: BRAF HiBiT degradation assay, C-terminal HiBiT-tagged BRAF G466V overexpressed in HCT-116 BRAF−/− cells (clone 8), Nano-Glo HiBiT Lytic assay
T1 construct: Horizon Discovery (HCT-116 BRAF−/− cells); host or cells: HCT-116 BRAF−/− cells, clone 8, lentiviral transduction
Summary of the method: (§1)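 First, the stable HiBiT-tagged cells were plated and incubated for 24 h. Next, compound was added in duplicate as an 11-point series with a 1 μM top concentration. Lytic detection followed, with DMSO-treated parental cells used for background. Finally, DC50 and Obs. Dmax relative to DMSO were derived from the % protein remaining curves.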

BRAF G469A = molecular target: T2, BRAF G469A (Homo sapiens, UniProt P15056, G469A); assay: BRAF HiBiT degradation assay, C-terminal HiBiT-tagged BRAF G469A overexpressed in HCT-116 BRAF−/− cells (clone 34), Nano-Glo HiBiT Lytic assay
T2 construct: Horizon Discovery (HCT-116 BRAF−/− cells); host or cells: HCT-116 BRAF−/− cells, clone 34, lentiviral transduction
Summary of the method: as §1

BRAF V600E = molecular target: T3, BRAF V600E (Homo sapiens, UniProt P15056, V600E); assay: BRAF HiBiT degradation assay, C-terminal HiBiT-tagged BRAF V600E A375 cells (clone 1F10), Nano-Glo HiBiT Lytic assay; conditions: for Dmax: A-375
T3 construct: endogenous C-terminal HiBiT fusion tag on BRAF V600E allele; endogenous in cells; host or cells: A375 clone 1F10 (CRISPR-Cas9 knock-in of the HiBiT tag; parental A375 from ATCC)
Summary of the method: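 Degradation is measured as loss of HiBiT signal from BRAF V600E tagged at its native locus in A375 cells. Doses span 1 μM to 0.01 nM in half-log steps, in duplicate. Percent remaining is calculated against DMSO controls after subtracting untagged A375 background, and curve fitting yields DC50 and observed Dmax.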

BRAF D594G = molecular target: T4, BRAF D594G (Homo sapiens, UniProt P15056, D594G); assay: BRAF HiBiT degradation assay, C-terminal HiBiT-tagged BRAF D594G overexpressed in HCT-116 BRAF−/− cells (clone 63), Nano-Glo HiBiT Lytic assay
T4 construct: Horizon Discovery (HCT-116 BRAF−/− cells); host or cells: HCT-116 BRAF−/− cells, clone 63, lentiviral transduction
Summary of the method: as §1

[1] = BRAF G466V, DC50 at 50%: fitted conc. at Y=50
[2] = HCT-116, BRAF G466V, percentage protein degraded at maximal compound effect relative to DMSO
[3] = Class 2, BRAF G469A, DC50 at 50%: fitted conc. at Y=50
[4] = HCT-116, Class 2, BRAF G469A, percentage protein degraded at maximal compound effect relative to DMSO
[5] = A375 (BRAF V600E), DC50 at 50%: fitted conc. at Y=50
[6] = A375 (BRAF V600E), percentage protein degraded at maximal compound effect relative to DMSO
[7] = BRAF D594G, DC50 at 50%: fitted conc. at Y=50
[8] = HCT-116, BRAF D594G, percentage protein degraded at maximal compound effect relative to DMSO
[9] = BRAF G466V (Class 3), HCT-116 BRAF−/− cells, DC50 at 50% degradation
[10] = BRAF G466V (Class 3), HCT-116 BRAF−/− cells, observed Dmax relative to DMSO control
[11] = BRAF G469A (Class 2), HCT-116 BRAF−/− cells, DC50 at 50% degradation
[12] = BRAF G469A (Class 2), HCT-116 BRAF−/− cells, observed Dmax relative to DMSO control
[13] = A375 (BRAF V600E, Class 1), DC50 at 50% degradation
[14] = A375 (BRAF V600E, Class 1), observed Dmax, % protein degraded relative to DMSO control
[15] = BRAF D594G (Class 3), HCT-116 BRAF−/− cells, DC50 at 50% degradation
[16] = BRAF D594G (Class 3), HCT-116 BRAF−/− cells, observed Dmax relative to DMSO control

T2 sequence (P15056 whole entry G469A): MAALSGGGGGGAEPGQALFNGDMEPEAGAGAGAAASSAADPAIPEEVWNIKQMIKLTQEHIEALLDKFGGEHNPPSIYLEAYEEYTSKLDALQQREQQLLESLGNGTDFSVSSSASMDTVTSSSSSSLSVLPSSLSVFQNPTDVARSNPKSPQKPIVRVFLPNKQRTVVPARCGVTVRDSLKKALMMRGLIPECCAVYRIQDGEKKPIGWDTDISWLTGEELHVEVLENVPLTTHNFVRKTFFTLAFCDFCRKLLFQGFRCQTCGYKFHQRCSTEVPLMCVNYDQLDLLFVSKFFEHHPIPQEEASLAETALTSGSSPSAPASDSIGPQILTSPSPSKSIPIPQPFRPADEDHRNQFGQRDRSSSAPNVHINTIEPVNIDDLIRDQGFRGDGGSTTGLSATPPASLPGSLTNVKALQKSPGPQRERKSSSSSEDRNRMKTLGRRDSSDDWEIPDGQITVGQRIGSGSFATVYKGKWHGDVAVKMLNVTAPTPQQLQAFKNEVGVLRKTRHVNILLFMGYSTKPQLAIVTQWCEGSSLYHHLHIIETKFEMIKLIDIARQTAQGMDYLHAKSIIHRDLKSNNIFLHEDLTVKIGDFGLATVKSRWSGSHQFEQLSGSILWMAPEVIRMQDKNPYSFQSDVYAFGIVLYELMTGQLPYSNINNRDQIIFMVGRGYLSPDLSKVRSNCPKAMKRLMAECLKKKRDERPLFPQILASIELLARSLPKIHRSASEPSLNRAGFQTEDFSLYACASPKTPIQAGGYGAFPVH
T1 sequence (P15056 whole entry G466V): as the sequence (P15056 whole entry G469A) above, with G466V, A469G counted along it
T3 sequence (P15056 whole entry V600E, the tested form may be a part): as the sequence (P15056 whole entry G469A) above, with A469G, V600E counted along it
T4 sequence (P15056 whole entry D594G): as the sequence (P15056 whole entry G469A) above, with A469G, D594G counted along it

Compound | DC50 (BRAF G466V; [1]) [nM] | Dmax (BRAF G466V; [2]) [%] | DC50 (BRAF G469A; [3]) [nM] | Dmax (BRAF G469A; [4]) [%] | DC50 (BRAF V600E; [5]) [nM] | Dmax (BRAF V600E; [6]) [%] | DC50 (BRAF D594G; [7]) [nM] | Dmax (BRAF D594G; [8]) [%] | DC50 (BRAF G466V; [9]) [nM] | Dmax (BRAF G466V; [10]) [%] | DC50 (BRAF G469A; [11]) [nM] | Dmax (BRAF G469A; [12]) [%] | DC50 (BRAF V600E; [13]) [nM] | Dmax (BRAF V600E; [14]) [%] | DC50 (BRAF D594G; [15]) [nM] | Dmax (BRAF D594G; [16]) [%]
O=C1CCC(c2ccc(N3CCC(CN4CCN(c5cnc(-n6cc(-c7cc(Cl)cc(NS(=O)(=O)N8CCCC8)c7F)c(-c7ccncc7)n6)nc5)CC4)CC3)nc2)C(=O)N1 (racemic) [Compound 359, Rac-N-{5-chloro-3-[1-(5-{4-[(1-{5-[(3R)-2,6-dioxopiperidin-3-yl]pyridin-2-yl}piperidin-4-yl)methyl]piperazin-1-yl}pyrimidin-2-yl)-3-(pyridin-4-yl)-1H-pyrazol-4-yl]-2-fluorophenyl}pyrrolidine-1-sulfonamide] |  |  |  |  |  |  |  |  | < 10 | > 70 | < 10 | > 70 | < 10 | > 70 | < 10 | > 70
O=C1CCN(c2ccc(N3CCC(CN4CCN(c5ccc(-n6cc(-c7cc(Cl)cc(NS(=O)(=O)N8CC[C@@H](F)C8)c7F)c(-c7ccncc7)n6)c(F)c5)CC4)CC3)nc2)C(=O)N1 [Compound 371, (3R)—N-[5-chloro-3-(1-{4-[4-({1-[5-(2,4-dioxo-1,3-diazinan-1-yl)pyridin-2-yl]piperidin-4-yl}methyl)piperazin-1-yl]-2-fluorophenyl}-3-(pyridin-4-yl)-1H-pyrazol-4-yl)-2-fluorophenyl]-3-fluoropyrrolidine-1-sulfonamide] |  |  |  |  |  |  |  |  | < 10 | 30 to 70 | < 10 | 30 to 70 | < 10 | > 70 | < 10 | 30 to 70
O=C1CC[C@H](c2ccc(N3CCC(CN4CCN(c5ccc(-n6cc(-c7cc(F)cc(NS(=O)(=O)N8CC[C@@H](F)C8)c7F)c(-c7ccncc7)n6)nc5)CC4)CC3)nc2)C(=O)N1 [Compound 305, (3R)—N-{3-[1-(5-{4-[(1-{5-[(3R)-2,6-dioxopiperidin-3-yl]pyridin-2-yl}piperidin-4-yl)methyl]piperazin-1-yl}pyridin-2-yl)-3-(pyridin-4-yl)-1H-pyrazol-4-yl]-2,5-difluorophenyl}-3-fluoropyrrolidine-1-sulfonamide] |  |  |  |  |  |  |  |  | < 10 | > 70 | < 10 | > 70 | < 10 | > 70 | < 10 | > 70
CCN(C)S(=O)(=O)Nc1cccc(-c2cn(-c3ccc(N4CCN(CC5CCN(c6ccc([C@H]7CCC(=O)NC7=O)cn6)CC5)CC4)cc3F)nc2-c2ccncc2)c1F [Compound 379, (3R)-3-(6-{4-[(4-{4-[4-(3-{[ethyl(methyl)sulfamoyl]amino}-2-fluorophenyl)-3-(pyridin-4-yl)-1H-pyrazol-1-yl]-3-fluorophenyl}piperazin-1-yl)methyl]piperidin-1-yl}pyridin-3-yl)piperidine-2,6-dione] |  |  |  |  |  |  |  |  | 50 to 500 | 30 to 70 | > 500 | 30 to 70 | 50 to 500 | > 70 | 50 to 500 | 30 to 70

Further lines, results first:

DC50 (BRAF G466V; [1]) [nM] | Dmax (BRAF G466V; [2]) [%] | DC50 (BRAF G469A; [3]) [nM] | Dmax (BRAF G469A; [4]) [%] | DC50 (BRAF V600E; [5]) [nM] | Dmax (BRAF V600E; [6]) [%] | DC50 (BRAF D594G; [7]) [nM] | Dmax (BRAF D594G; [8]) [%] | DC50 (BRAF G466V; [9]) [nM] | Dmax (BRAF G466V; [10]) [%] | DC50 (BRAF G469A; [11]) [nM] | Dmax (BRAF G469A; [12]) [%] | DC50 (BRAF V600E; [13]) [nM] | Dmax (BRAF V600E; [14]) [%] | DC50 (BRAF D594G; [15]) [nM] | Dmax (BRAF D594G; [16]) [%] | Compound
> 500 | < 30 | > 500 | < 30 | < 10 | > 70 | > 500 | 30 to 70 |  |  |  |  |  |  |  |  | CCCS(=O)(=O)Nc1cccc(-c2nc(C(C)(C)C)sc2-c2ccnc(Nc3cnn(CC4CCN(C(=O)[C@H]5CC[C@H](Oc6ccc(C7CCC(=O)NC7=O)cc6)CC5)CC4)c3)n2)c1F (mixture of isomers) [Compound 118, N-{3-[2-tert-butyl-5-(2-{[1-({1-[(1r,4r)-4-{4-[(3RS)-2,6-dioxopiperidin-3-yl]phenoxy}cyclohexanecarbonyl]piperidin-4-yl}methyl)-1H-pyrazol-4-yl]amino}pyrimidin-4-yl)-1,3-thiazol-4-yl]-2-fluorophenyl}propane-1-sulfonamide]
> 500 | 30 to 70 | > 500 | < 30 | < 10 | > 70 | > 500 | 30 to 70 |  |  |  |  |  |  |  |  | CCCS(=O)(=O)Nc1cccc(-c2nc(C(C)(C)C)sc2-c2ccnc(Nc3ccc(C4CCN(C(=O)[C@@H]5CCN(c6ccc(C7CCC(=O)NC7=O)cn6)C5)CC4)cc3)n2)c1F (mixture of isomers) [Compound 164, N-[3-(2-tert-butyl-5-{2-[(4-{1-[(3R)-1-{5-[(3RS)-2,6-dioxopiperidin-3-yl]pyridin-2-yl}pyrrolidine-3-carbonyl]piperidin-4-yl}phenyl)amino]pyrimidin-4-yl}-1,3-thiazol-4-yl)-2-fluorophenyl]propane-1-sulfonamide]
> 500 | 30 to 70 | > 500 | 30 to 70 | 10 to 50 | > 70 | > 500 | 30 to 70 |  |  |  |  |  |  |  |  | CCCS(=O)(=O)Nc1cccc(-c2nc(C(C)(C)C)sc2-c2ccnc(Nc3cccc(OC4CCN(C(=O)CN5CCC(c6ccc(NC7CCC(=O)NC7=O)cc6)CC5)CC4)c3)n2)c1F (racemic) [Compound 96, Rac-N-(3-{2-tert-butyl-5-[2-({3-[(1-{2-[4-(4-{[(3R)-2,6-dioxopiperidin-3-yl]amino}phenyl)piperidin-1-yl]acetyl}piperidin-4-yl)oxy]phenyl}amino)pyrimidin-4-yl]-1,3-thiazol-4-yl}-2-fluorophenyl)propane-1-sulfonamide]
